Measured values taken from patent publication US12384769B2, “Heteroaryl-substituted aminoalkyl azole compounds as pesticides” (Elanco Animal Health GmbH, priority 2019, dated 2025).

Assays:
Assay type in all cases: in vivo
[1] = tested on: Aedes aegypti strain MONHEIM; test: Aedes aegypti test (AEDSAE surface treatment & contact assay); conditions: 30 minutes exposure, 24 hours after contact, read-out: efficacy (mortality)
Ctenocephalides felis = Ctenocephalides felis in-vitro contact test, adult cat flea; conditions: 5 μg/cm^2 (=500 g/ha), after 48 hours, read-out: activity (efficacy, fleas dead or moribund)
Outline: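 Acetone solutions coated onto inner walls of glass tubes; 900 ppm gives 5 μg/cm^2. After drying, 5-10 adult Ctenocephalides felis per tube held 48 h at room temperature. Fleas then placed on 45-50° C. plate for up to 5 min; those unable to climb away scored dead or moribund, efficacy as % dead/moribund.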

[2] = tested on: Rhipicephalus microplus (strain Parkhurst, resistant against synthetic pyrethroids); test: Rhipicephalus microplus in-vitro contact test, larval cattle tick (BOOPMI Contact); conditions: 5 μg/cm^2 (=500 g/ha), after 48 hours, read-out: activity (efficacy, larvae dead or moribund)
Outline: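 Glass tubes coated with compound in acetone (900 ppm giving 5 μg/cm²), dried, then loaded with 20-50 pyrethroid-resistant Parkhurst larvae and held at 27 °C, 85% RH. After 48 h negative geotaxis is scored; efficacy in % dead or moribund larvae.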

Myzus persicae = Myzus persicae oral test; conditions: 120 h, after 5 days
Description: Solvent: 100 parts by weight acetone
Afterwards the plates are sealed with parafilm through which a mixed population of the green peach aphid (Myzus persicae) can suck on the compound preparation.
After 5 days mortality in % is determined. 100% means all aphids have been killed and 0% means none of the aphids have been killed.

Spodoptera frugiperda = Spodoptera frugiperda spray test; conditions: in Zea mays, 168 h, read-out: activity (mortality)
Outline: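 Compound in acetone/DMF, diluted in water with 1000 ppm alkylarylpolyglycol ether emulsifier, sprayed on maize leaf sections. Dried leaves infested with fall armyworm larvae; % mortality after 7 days (100% = all killed, 0% = none).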

[3] = tested on: Musca domestica strain WHO-N; test: Musca domestica test (MUSCDO surface treatment & contact assay); conditions: surface concentration 20 mg/m^2, glazed tile, 30 minutes exposure, 24 hours after contact, read-out: efficacy (mortality)
Diabrotica balteata = Diabrotica balteata spray test; conditions: 168 h, 500 g/ha (=160 μg/well), wheat seeds, after 7 days, read-out: activity (efficacy, seedlings grown)
Outline: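 Germinated wheat seedlings (5 per well, on agar) sprayed with compound in acetone/DMF with emulsifier-containing water, then infested with 10–20 Diabrotica balteata larvae. Efficacy (%) scored after 7 days from seedling growth: 100% = growth as untreated uninfested control, 0% = no seedlings grown.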

Boophilus microplus = Boophilus microplus injection test (BOOPMI Injection); conditions: Rhipicephalus microplus, 168 h, injection into adult engorged female ticks, egg deposition after 7 days, read-out: activity (efficacy, infertile eggs)
Outline: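 Adult engorged female ticks (5 per group) injected into the abdomen with 1 μL compound in DMSO, then held in a climate chamber. Fertile egg deposition scored after 7 days, with unclear eggs kept until hatching (~42 days). Efficacy 100% = all eggs infertile, 0% = all fertile.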

## C[C@H](Nc1nc2cc(C(F)(F)F)c(Cl)cc2o1)c1ncnn1-c1ncccn1 [Example I-001, 6-chloro-N-{(1S)-1-[1-(pyrimidin-2-yl)-1H-1,2,4-triazol-5-yl]ethyl}-5-(trifluoromethyl)-1,3-benzoxazol-2-amine]
[1]; surface concentration 4 mg/m^2, glazed tile
  mortality at 4 mg/m2: 85 to 100%
[1]; surface concentration 20 mg/m^2, glazed tile
  mortality at 20 mg/m2: 90 to 100%
Ctenocephalides felis
  pest or weed control at 5 µg/cm2, 5 µg/cm2: 100%
[2]
  pest or weed control at 5 µg/cm2: 100%
Myzus persicae
  mortality at 4 ppm: 100%
Spodoptera frugiperda
  mortality at 100 g/ha: 100%
  mortality at 500 g/ha: 100%
[3]
  mortality at 20 mg/m2: 90 to 100%
Diabrotica balteata
  pest or weed control at 160 µg/disc, 500 g/ha: 100%
Boophilus microplus; 4 μg/animal
  pest or weed control at 0.004 mg: 100%
Boophilus microplus; 20 μg/animal
  pest or weed control at 0.02 mg: 100%
